{"source": "patent US10544472B2", "about": "“Multiplexing transcription factor reporter protein assay process and system” (Attagene, Inc., priority 2014, dated 2020)", "key": {"NF-κB response element": {"system": "NF-κB response element", "experiment": "Multiplexed Gluc-tag reporter assay, NF-κB response element", "type": "cell-based", "procedure": "(§1) Two separate detection assays were conducted to check the profile of FCICC (6-Formylindolo [3, 2-b] carbazole Indolo [3,2-b] carbazole-6-carboxaldehyde-5, 11-dihydro, an AhR response element inducer, commercially available from Biomol, Plymouth Meeting, Pa.) and IL-1β and TNF-α (NF-κB response element inducer).\n(§2) Purified Antibodies were diluted in DPBS with 5% glycerol at 5 μg/ml concentration. […] of diluted antibody solutions were dispensed onto wells of a […] 600 plate (Greiner Bio-One, Monroe, N.C.), and the plate was tapped gently to distribute the antibody solutions evenly on the bottom of the well. The plate was sealed tightly with a PCR sealing film. The antibody plate was stored at 4° C. for one week for antibodies to bind.\n(§3) At the end of incubation, 200 μl of Blocking Reagent (Attagene, Research Triangle Park, N.C.) was added to the wells to block the unbounded surface, either for 1 hour at room temperature for quick use, or at 4° C. overnight. The plate was washed 4 times with DPBS (Invitrogen, Carlsbad, Calif.) by flicking the solution out into a waste container and then blotted dry briefly on layers of paper towel. Target samples were diluted in Binding Reagent (Attagene, Inc., Research Triangle Park, N.C.). After the washing, 100 μl of diluted testing samples were added to the well and incubated at RT for 1 hour with gentle rocking agitation.\n(§4) After the incubation, samples were removed by gently flicking and the plate was washed 4 times with DPBS as above. […] The reading was normalized against the minimal promoter driven reporter."}, "[1]": {"experiment": "Stability of coelenterazine substrate in assay reagents", "type": "physicochemical", "conditions": "over 70 minutes after dilution from methanol stock into assay reagents", "procedure": "It is well known that coelenterazine is not stable in aqueous solutions. FIGS. 3C and 3D show the stability profiles of coelenterazine substrate in different assay reagents after being diluted from its methanol stock. A solution of Gluc enzyme was injected at different time points into substrates that were prepared at the same time. The overall signal strength decreased about ten times over 70 minutes and there was no significant difference among these buffers in the stability of the substrate. Once again, the Attagene reagent provided better sensitivity and stronger RLU output."}, "AhR response element": {"system": "AhR response element", "experiment": "Multiplexed Gluc-tag reporter assay, AhR response element", "type": "cell-based", "procedure": "as §1, §2\nAt the end of incubation, 200 μl of Blocking Reagent (Attagene, Research Triangle Park, N.C.) was added to the wells to block the unbounded surface, either for 1 hour at room temperature for quick use, or at 4° C. overnight. The plate was washed 4 times with DPBS (Invitrogen, Carlsbad, Calif.) by flicking the solution out into a waste container and then blotted dry briefly on layers of paper towel. […]\nas §4"}, "CRE": {"system": "CRE", "experiment": "Multiplexed Gluc-tag reporter assay, CRE", "type": "cell-based", "conditions": "twelve response elements/Gluc tags, four assays (FIG. 8)", "procedure": "as §2, §3, §4"}, "[2]": {"conditions": "seven antibodies on 96-well plate, two separate detection assays (FIGS. 7A, 7B)"}, "[3]": {"conditions": "twelve response elements/Gluc tags, four assays (FIG. 8)"}}}
{"compound": "TNF-α", "values": [{"measurement": "induction of NF-κB", "setting": "NF-κB response element; [2]", "result": "specific induction"}, {"measurement": "induction of NF-κB", "setting": "NF-κB response element; [3]", "result": "specific induction"}]}
{"compound": "Oc1ccc(Cc2nc3c(Cc4ccccc4)nc(-c4ccc(O)cc4)cn3c2O)cc1", "note": "[coelenterazine]", "values": [{"measurement": "decrease of overall signal strength", "setting": "[1]", "result": "about ten"}]}
{"compound": "O=Cc1c2[nH]c3ccccc3c2cc2c1[nH]c1ccccc12", "note": "[FCICC, 6-Formylindolo [3,2-b] carbazole Indolo [3,2-b] carbazole-6-carboxaldehyde-5, 11-dihydro]", "values": [{"measurement": "induction of AhR", "setting": "AhR response element; [2]", "result": "specific induction"}, {"measurement": "induction of AhR", "setting": "AhR response element; [3]", "result": "specific induction"}]}
{"compound": "C=C[C@@]1(C)CC(=O)[C@]2(O)[C@@]3(C)[C@@H](O)CCC(C)(C)[C@@H]3[C@H](O)[C@H](OC(C)=O)[C@@]2(C)O1", "note": "[FSK]", "values": [{"measurement": "induction of CRE", "setting": "CRE", "result": "specific induction"}]}
{"compound": "IL-1β: NF-κB response element inducer", "values": [{"measurement": "induction of NF-κB", "setting": "NF-κB response element; [2]", "result": "specific induction"}, {"measurement": "induction of NF-κB", "setting": "NF-κB response element; [3]", "result": "specific induction"}]}
